From patent US8586739B2, “Heterocyclic compounds and their uses” (Amgen Inc., priority 2007, dated 2013)

system: human B cells; assay: Human B cells proliferation stimulated by anti-IgM (3H thymidine); assay type: cell-based; settings: Homo sapiens, B-cell, 72 h, purified human B cells, anti-Human IgM + CD40L-LZ
Procedure: Human B Cells Proliferation stimulate by anti-IgM
Isolate PBMCs from Leukopac or from human fresh blood. Isolate human B cells by using Miltenyi protocol and B cell isolation kit II.—human B cells were Purified by using autoMACS® column.
Activation of Human B Cells
Use 96 well Flat bottom plate, plate 50000/well purified B cells in B cell proffer-ation medium (DMEM+5% FCS, 10 mM Hepes, 50 μM 2-mercaptoethanol); 150 μL medium contain 250 ng/mL CD40L-LZ recombinant protein (Amgen) and 2 μg/mL anti-Human IgM antibody (Jackson ImmunoReseach Lab.#109-006-129), mixed with 50 μL B cell medium containing PI3K inhibitors and incubate 72 h at 37° C. incubator. After 72 h, pulse labeling B cells with 0.5-1 uCi/well ^3H thymidine for overnight ˜18 h, and harvest cell using TOM harvester.

SMILES | IC50 [nM]
Cc1cccnc1-c1nc2c(Cl)cccc2cc1[C@H](C)Nc1ncnc2[nH]cnc12 [N-((1S)-1-(8-chloro-2-(3-methyl-2-pyridinyl)-3-quinolinyl)ethyl)-9H-purin-6-amine] | 33.2
C[C@H](Nc1ncnc2[nH]cnc12)c1cc2cccc(Cl)c2nc1-c1cccnn1 [N-((1S)-1-(8-chloro-2-(3-pyridazinyl)-3-quinolinyl)ethyl)-9H-purin-6-amine] | 18
C[C@H](Nc1ncnc2[nH]cnc12)c1cc2cccc(Cl)c2nc1-c1cccnc1 [N-((1S)-1-(8-chloro-2-(3-pyridinyl)-3-quinolinyl)ethyl)-9H-purin-6-amine] | 3.44
C[C@H](Nc1ncnc2[nH]cnc12)c1cc2cccc(Cl)c2nc1-c1ccc(F)cc1 [N-((1S)-1-(8-chloro-2-(4-fluorophenyl)-3-quinolinyl)ethyl)-9H-purin-6-amine] | 10.5
CC(C)Cc1ncc(F)cc1-c1nc2c(Cl)cccc2cc1[C@H](C)Nc1ncnc2[nH]cnc12 [N-((1S)-1-(8-chloro-2-(5-fluoro-2-(2-methylpropyl)-3-pyridinyl)-3-quinolinyl)ethyl)-9H-purin-6-amine] | 15.5
Cc1ncc(F)cc1-c1nc2c(Cl)cccc2cc1[C@H](C)Nc1ncnc2[nH]cnc12 [N-((1S)-1-(8-chloro-2-(5-fluoro-2-methyl-3-pyridinyl)-3-quinolinyl)ethyl)-9H-purin-6-amine] | 16.9
C[C@H](Nc1ncnc2[nH]cnc12)c1cc2cccc(Cl)c2nc1-c1cncc(F)c1 [N-((1S)-1-(8-chloro-2-(5-fluoro-3-pyridinyl)-3-quinolinyl)ethyl)-9H-purin-6-amine] | 3.57
C[C@H](Nc1ncnc2[nH]cnc12)c1cc2cccc(Cl)c2nc1-c1cccc(F)n1 [N-((1S)-1-(8-chloro-2-(6-fluoro-2-pyridinyl)-3-quinolinyl)ethyl)-9H-purin-6-amine] | 3.1
Cc1cccc(-c2nc3c(Cl)cccc3cc2[C@H](C)Nc2ncnc3[nH]cnc23)n1 [N-((1S)-1-(8-chloro-2-(6-methyl-2-pyridinyl)-3-quinolinyl)ethyl)-9H-purin-6-amine] | 105
C[C@H](Nc1ncnc2[nH]cnc12)c1cc2cccc(Cl)c2nc1Oc1ccccc1 [N-((1S)-1-(8-chloro-2-phenoxy-3-quinolinyl)ethyl)-9H-purin-6-amine] | 29.3
C[C@H](Nc1ncnc2[nH]cnc12)c1cc2cccc(Cl)c2nc1-c1ccccc1 [N-((1S)-1-(8-chloro-2-phenyl-3-quinolinyl)ethyl)-9H-purin-6-amine] | 2.65
C[C@H](Nc1ncnc2nc[nH]c12)c1cc2cccc(F)c2nc1-c1cccnc1 [N-((1S)-1-(8-fluoro-2-(3-pyridinyl)-3-quinolinyl)ethyl)-7H-purin-6-amine] | 15.4
Clc1cccc2cc(CNc3ncnc4[nH]cnc34)c(-c3ccccc3-c3ccccc3)nc12 [N-((2-(2-biphenylyl)-8-chloro-3-quinolinyl)methyl)-9H-purin-6-amine] | 165
Fc1ccc2cc(CNc3ncnc4[nH]cnc34)c(-c3ccccc3Cl)nc2c1 [N-((2-(2-chlorophenyl)-7-fluoro-3-quinolinyl)methyl)-9H-purin-6-amine] | 88.7
Fc1cccc2nc(CNc3ncnc4[nH]cnc34)c(-c3ccccc3Cl)nc12 [N-((3-(2-Chlorophenyl)-5-fluoroquinoxalin-2-yl)methyl)-9H-purin-6-amine] | 299
Clc1ccccc1-c1nc2c(I)cccc2nc1CNc1ncnc2[nH]cnc12 [N-((3-(2-Chlorophenyl)-5-iodoquinoxalin-2-yl)methyl)-9H-purin-6-amine] | 88.4
Fc1cccc2nc(-c3ccccc3Cl)c(CNc3ncnc4[nH]cnc34)nc12 [N-((3-(2-Chlorophenyl)-8-fluoroquinoxalin-2-yl)methyl)-9H-purin-6-amine] | 177
Cc1cccc2nc(CNc3ncnc4ccsc34)c(-c3ccccc3Cl)nc12 [N-((3-(2-chlorophenyl)-5-methyl-2-quinoxalinyl)methyl)thieno[3,2-d]pyrimidin-4-amine] | 194
